# Measured values reported in PMC12735921, “Evaluation of Antiproliferative Activity and Molecular Modeling Studies of Some Novel Benzimidazolone-Bridged Hybrid Compounds” (Pharmaceuticals, 2025).
# Values joined by “and” are separate entries in the source; they are usually repeats but may differ in a detail not shown here. Equal entries are not always repeated. Marks after values point to notes of the source that are not given here.
# Experiments:
# HEK 293 cells = assay: MTT cell viability assay, non-cancerous HEK 293; type: cell-based, human; settings: Homo sapiens, HEK293, 48 h, mean ± SD, n = 3
# Procedure, shortened: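 Cells grown in DMEM/10% FBS were seeded at 1 × 10^5 cells/mL and exposed to compounds at 0.5–200 µM for 48 h. Formazan was dissolved in DMSO and read at 570 nm, with cytotoxicity expressed relative to untreated control (0%). IC50 came from a four-parameter logistic fit, averaged over three independent runs.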
# A549 cells [1] = assay: LDH leakage assay, A549; type: cell-based, human; settings: A549, IC50 concentration of compound, 48 h; H2O2 positive control; mean ± SD, n = 3
# Description: One hundred microliters of culture medium was transferred to a new 96-well plate. One hundred microliters of LDH reaction solution was added to each well, and absorbance was measured at 490 nm using an ELISA plate reader (BMG Labtech, Ortenberg, Germany) after 30 min.
# A549 cells [2] = assay: Total oxidative status (TOS), A549; type: cell-based, human; settings: A549, IC50 concentration of compound, 48 h; H2O2 250 µM positive control; mean ± SD, n = 3
# Description: TOS were evaluated using a commercially available kit (Rel Assay Diagnostics®, Gaziantep, Turkey) according to the manufacturer’s instructions. […] The TOS assay quantifies oxidizing agents based on their ability to convert an iron (II) ion chelator complex to iron (III) ions. The results were calibrated against hydrogen peroxide (H2O2, 250 µM) as a positive control for 48 h and expressed as µmol H2O2 equivalents per liter. The analysis was performed in three independent biological replicates (n = 3).
# A549 cells [3] = assay: Intracellular GSH/GSSG ratio, A549; type: cell-based, human; settings: A549, IC50 concentration of compound, 48 h; H2O2 positive control; mean ± SD, n = 3
# Description: Intracellular reduced (GSH) and oxidized (GSSG) glutathione levels were measured using the GSH/GSSG Ratio Detection Assay Kit (Cayman Chemical, Ann Arbor, MI, USA, Cat. No: 703002) according to the manufacturer’s protocol. […] After treatment, cells were washed with cold PBS and lysed with MES buffer provided in the kit.
# To prevent oxidation of GSH to GSSG during processing, samples were deproteinized using the supplied metaphosphoric acid solution and neutralized accordingly. Total glutathione and GSSG levels were measured separately by adding the appropriate buffers and reagents to the wells of a 96-well plate, followed by the addition of DTNB recycling reagent and glutathione reductase. Absorbance was read at 405 nm using a microplate reader (BMG Labtech, Germany). The amount of GSH was calculated by subtracting 2 × GSSG from the total glutathione, and the GSH/GSSG ratio was used to assess intracellular redox status.
# HeLa cells = assay: Cell cycle analysis (PI staining, flow cytometry), HeLa; type: cell-based, human; settings: IC50 concentration, 48 h, mean ± SEM, n = 3
# Description: (§1) Cell cycle distribution was assessed by propidium iodide (PI) staining and flow cytometry. HeLa, MCF-7, and A549 cells were seeded in 6-well plates at a density of 1 × 10^5 cells per well and allowed to attach overnight. […] Following exposure, both adherent and floating cells were collected, washed twice with cold phosphate-buffered saline (PBS, pH 7.4), and fixed overnight in 70% cold ethanol at 4 °C. After fixation, the cells were centrifuged and resuspended in 500 µL of PI/RNase staining solution containing 50 µg/mL PI and 100 µg/mL RNase A (Sigma-Aldrich®, St. Louis, MO, USA), followed by incubation in the dark for 30 min at 37 °C. The stained samples were analyzed using a Muse™ Cell Analyzer (Merck, Millipore, Germany) equipped with a 488 nm excitation laser and a 617 nm emission filter. A minimum of 10,000 events per sample were acquired after exclusion of debris and doublets via FSC-A vs. FSC-H gating. The DNA content histograms were generated automatically, and cell populations were expressed as percentages of G0/G1, S, and G2/M phases using the Muse™ Cell Cycle Analysis Software 1.5.0.0. All assays were conducted in triplicate biological repeats (n = 3), and results were reported as mean ± SEM.
# A549 cells [4] = assay: Cell cycle analysis (PI staining, flow cytometry), A549; type: cell-based, human; settings: A549, IC50 concentration, 48 h, mean ± SEM, n = 3
# Description: as §1
# [5] = tested on: A549, MCF-7, and HeLa cells; assay: MTT cell viability assay, ranges stated across the cancer cell lines; type: cell-based; settings: Homo sapiens, range over the three cancer cell lines, 48 h
# Description: Cell viability assay was performed on the human lung cancer (A549) (ATCC CCL-185), human breast cancer (MCF-7) (ATCC-HTB-22), cervical cancer (HeLa) (ATCC-CCL-2), and human embryonic kidney 293 (HEK293) (ATCC-CRL-1573) cell lines, which were purchased from Deutsche Sammlung von Mikroorganismen und Zellkulturen (DSMZ, Braunschweig, Germany). The cells were maintained in Dulbecco’s modified Eagle’s medium (DMEM), supplemented with 10% fetal bovine serum (FBS), 2 mM L-glutamine, 100 U/mL penicillin, and 100 mg/L streptomycin (Biochrom AG, Berlin, Germany) at 37 °C in a humidified atmosphere of 5% CO2.
# The cytotoxic effect was determined by the MTT (3-(4,5-dimethyl-2-thiazolyl)-2,5-diphenyl-2H-tetrazolium bromide) cell viability assay. Cells were seeded at an initial concentration of 1 × 10^5 cells/mL in 96-well microplates. […] After the incubation period, the formed formazan crystals were dissolved in dimethyl sulfoxide (DMSO), and the optical density (OD) of the compounds was measured at 570 nm using a spectrophotometer (BMG Labtech, Ortenberg, Germany). Cytotoxicity was expressed as an increase in the mean percentage of cytotoxicity relative to the unexposed control ± standard deviation (SD). […] IC50 was calculated by fitting the data to a sigmoidal curve using a four-parameter logistic model and was presented as an average of three independent measurements. […]
smiles,measurement,setting,value
"O=C(O)Cn1c(=O)n(CC(=O)O)c2cc(Cl)c(Cl)cc21 [Compound 6, 2,2′-(5,6-Dichloro-2-oxo-1H-benzo[d]imidazole-1,3(2H)-diyl)diacetic Acid]",IC50,HEK 293 cells,62.7 ± 3.62 µM
same,LDH,A549 cells [1],"24.5 ± 2.0 µU/mL and 24.5 ± 2.0 ^a,b µU/mL"
same,TOS,A549 cells [2],"7.3 ± 0.5 ^a,b µmol H2O2 eq/L"
same,GSH/GSSG,A549 cells [3],"11.2 ± 1.0 nmol/mg Protein and 11.2 ± 1.0 ^a,b nmol/mg Protein"
same,cells in G0/G1 phase,HeLa cells,42.3 ± 2.3%
same,cells in G2/M phase,HeLa cells,32.9 ± 1.6%
same,cells in S phase,HeLa cells,24.8 ± 1.5%
same,cells in G0/G1 phase,A549 cells [4],59.8 ± 2.0%
same,cells in G2/M phase,A549 cells [4],19.6 ± 1.4%
same,cells in S phase,A549 cells [4],20.6 ± 1.5%
same,IC50,[5],28.3 to 31.2 µM
